Several values for one entry are separate records, joined by “and”; a condition that tells them apart may be missing. Equal entries are not always repeated.
Assays:
α-21 cells [1] = experiment: Colony forming ability in soft agar in the presence of sodium orthovanadate; format: cell-based, Fischer rat; conditions: 9 days
Method: The α-21 cells were grown in soft agar in the presence of the indicated concentration of sodium orthovanadate (below) on duplicate dishes. After 9 days the colonies were counted on each dish and the approximate size of the colonies noted. […]

REF-neo cells = experiment: Effect of sodium orthovanadate on proliferation of control cells (cell count); format: cell-based, Fischer rat; conditions: 10% FCS
Method: (§1) 1. Cells were grown on 5 cm petri dishes in DME medium with 10% FCS for 48 h. After 48 h of growth, each dish of α-7, α-21, and α-29 cells contained about 0.4 x 10^5 to 0.6 x 10^5 cells, and each dish of REF-neo cells contained 1.8 x 10^5 cells. The medium was discarded, and fresh medium containing 10% FCS and the indicated concentration (below) of sodium orthovanadate was added to the cells. After 48 h of culture in this medium the cells from two replicate dishes were harvested and counted. […]
(§2) 2. Cells (control cells = REF-neo, PTPα-overexpressing cells = α-21) were grown on 5 cm petri dishes in DME medium with 10% FCS for 48 h. The medium was discarded, and fresh medium containing 10% FCS and the indicated concentration (below) of sodium orthovanadate was added to the cells. After 72 h of culture in this medium the cells from two replicate dishes were harvested and counted. The results are shown in Table 3 below and are essentially the same as in 1 above.

α-7 cells = experiment: Effect of sodium orthovanadate on proliferation of PTPα-overexpressing cells (cell count); format: cell-based, Fischer rat; conditions: 10% FCS, 48 h
Method: as §1

α-29 cells = experiment: as above; format: cell-based, Fischer rat; conditions: 10% FCS, 48 h
Method: as §1

α-21 cells [2] = experiment: as above; format: cell-based, Fischer rat; conditions: for cell count, set #3 / cell count, set #2 (+0.1% FCS) / Number of cells/5 cm dish / cell count, set #1 (+10% FCS): α-21; for cell count, set #3 / Number of cells/5 cm dish / cell count, set #1 (+10% FCS): 10% FCS; for cell count, set #3: then another 48 h in 10% FCS without vanadate
Method: as §1, §2
3. PTPα-overexpressing cells (α-21) were grown for 48 h (to about 60% confluency) in DME medium containing 10% FCS. The medium was removed and replaced with medium containing the indicated concentration of sodium orthovanadate (below) and either 10% (sets #1 and #3) or 0.1% FCS (set #2). The cells were cultured for 48 h and counted (sets #1 and 2), or the medium was removed from set #3 and replaced with medium containing 10% FCS without sodium orthovanadate and cultured for another 48 h before counting. […]

[3] = tested on: REF α-21 PTPα-overexpressing cells; experiment: Tumourigenesis by REF α-21 cells grown and injected with vanadate; format: in vivo, nude mice
Method: The α-21 cells were grown in DME medium containing 10% FCS and then in DME medium with 0.1% FCS in the presence of 50 µM sodium orthovanadate for 48 h. The cells were then harvested by trypsinisation, centrifuged to pellet the cells, and the cell pellet resuspended in DME containing 50 µM sodium orthovanadate. Other α-21 cells were grown and prepared in a similar manner, except in the absence of sodium orthovanadate throughout. The resuspended cells (plus or minus vanadate) were subcutaneously injected into nude mice (2 x 10^6 cells/mouse, 4 mice for each treatment), and nine days later the tumour size was measured.

[Na+].[Na+].[Na+].[O]=[V]([O-])([O-])[O-] [Vanadate, sodium orthovanadate]
Number of colonies Average (α-21 cells [1]; vanadate 5 µM): 1260 | Number of colonies Exp 1 (α-21 cells [1]; vanadate 5 µM): 1127 | Number of colonies Exp 2 (α-21 cells [1]; vanadate 5 µM): 1392 | Number of colonies Average (α-21 cells [1]; vanadate 10 µM): 1196 | Number of colonies Exp 1 (α-21 cells [1]; vanadate 10 µM): 1458 | Number of colonies Exp 2 (α-21 cells [1]; vanadate 10 µM): 934 | Number of colonies Average (α-21 cells [1]; vanadate 20 µM): 667 | Number of colonies Exp 1 (α-21 cells [1]; vanadate 20 µM): 692 | Number of colonies Exp 2 (α-21 cells [1]; vanadate 20 µM): 641 | Number of colonies Average (α-21 cells [1]; vanadate 40 µM): 292 | Number of colonies Exp 1 (α-21 cells [1]; vanadate 40 µM): 312 | Number of colonies Exp 2 (α-21 cells [1]; vanadate 40 µM): 271 | Number of colonies Average (α-21 cells [1]; vanadate 80 µM): 82 | Number of colonies Exp 1 (α-21 cells [1]; vanadate 80 µM): 90 | Number of colonies Exp 2 (α-21 cells [1]; vanadate 80 µM): 73 | Number of cells/5 cm dish (REF-neo cells; vanadate 5 µM, 48 h): 1.10 x 10^6 cells/5 cm dish | Number of cells/5 cm dish (REF-neo cells; vanadate 5 µM, 72 h): 1.90 x 10^6 cells/5cm dish | Number of cells/5 cm dish (REF-neo cells; vanadate 30 µM, 48 h): 1.04 x 10^6 cells/5 cm dish | Number of cells/5 cm dish (REF-neo cells; vanadate 30 µM, 72 h): 1.80 x 10^6 cells/5cm dish | Number of cells/5 cm dish (REF-neo cells; vanadate 60 µM, 48 h): 9.90 x 10^5 cells/5 cm dish | Number of cells/5 cm dish (REF-neo cells; vanadate 60 µM, 72 h): 1.60 x 10^6 cells/5cm dish | Number of cells/5 cm dish (REF-neo cells; vanadate 120 µM, 48 h): 7.60 x 10^5 cells/5 cm dish | Number of cells/5 cm dish (REF-neo cells; vanadate 120 µM, 72 h): 6.70 x 10^5 cells/5cm dish | Number of cells/5 cm dish (α-7 cells; vanadate 5 µM): 1.72 x 10^6 cells/5 cm dish | Number of cells/5 cm dish (α-7 cells; vanadate 30 µM): 1.41 x 10^6 cells/5 cm dish | Number of cells/5 cm dish (α-7 cells; vanadate 60 µM): 1.18 x 10^6 cells/5 cm dish | Number of cells/5 cm dish (α-7 cells; vanadate 120 µM): 5.80 x 10^5 cells/5 cm dish | Number of cells/5 cm dish (α-29 cells; vanadate 5 µM): 1.62 x 10^6 cells/5 cm dish | Number of cells/5 cm dish (α-29 cells; vanadate 30 µM): 7.20 x 10^5 cells/5 cm dish | Number of cells/5 cm dish (α-29 cells; vanadate 60 µM): 4.70 x 10^5 cells/5 cm dish | Number of cells/5 cm dish (α-29 cells; vanadate 120 µM): 2.10 x 10^5 cells/5 cm dish | toxicity to α-21 cells (resumption of proliferation once vanadate is removed) (α-21 cells [2]; comparison of cell numbers in sets #1 and 3): not irreversibly toxic | cell count, set #3 (α-21 cells [2]; vanadate 5 µM, 48 h): 2.90 x 10^6 | cell count, set #2 (+0.1% FCS) (α-21 cells [2]; vanadate 5 µM, 48 h): 1.18 x 10^6 | Number of cells/5 cm dish (α-21 cells [2]; vanadate 5 µM, 48 h): 1.42 x 10^6 cells/5 cm dish | cell count, set #1 (+10% FCS) (α-21 cells [2]; vanadate 5 µM, 48 h): 1.30 x 10^6 | Number of cells/5 cm dish (α-21 cells [2]; vanadate 5 µM, 72 h): 1.20 x 10^6 cells/5cm dish | cell count, set #3 (α-21 cells [2]; vanadate 30 µM, 48 h): 1.46 x 10^6 | cell count, set #2 (+0.1% FCS) (α-21 cells [2]; vanadate 30 µM, 48 h): 5.40 x 10^5 | Number of cells/5 cm dish (α-21 cells [2]; vanadate 30 µM, 48 h): 7.00 x 10^5 cells/5 cm dish | cell count, set #1 (+10% FCS) (α-21 cells [2]; vanadate 30 µM, 48 h): 5.00 x 10^5 | Number of cells/5 cm dish (α-21 cells [2]; vanadate 30 µM, 72 h): 4.80 x 10^5 cells/5cm dish | cell count, set #3 (α-21 cells [2]; vanadate 60 µM, 48 h): 9.60 x 10^5 | cell count, set #2 (+0.1% FCS) (α-21 cells [2]; vanadate 60 µM, 48 h): 3.80 x 10^5 | Number of cells/5 cm dish (α-21 cells [2]; vanadate 60 µM, 48 h): 3.70 x 10^5 cells/5 cm dish | cell count, set #1 (+10% FCS) (α-21 cells [2]; vanadate 60 µM, 48 h): 3.20 x 10^5 | Number of cells/5 cm dish (α-21 cells [2]; vanadate 60 µM, 72 h): 2.60 x 10^5 cells/5cm dish | cell count, set #3 (α-21 cells [2]; vanadate 120 µM, 48 h): 5.20 x 10^5 | cell count, set #2 (+0.1% FCS) (α-21 cells [2]; vanadate 120 µM, 48 h): 2.00 x 10^5 | Number of cells/5 cm dish (α-21 cells [2]; vanadate 120 µM, 48 h): 1.60 x 10^5 cells/5 cm dish | cell count, set #1 (+10% FCS) (α-21 cells [2]; vanadate 120 µM, 48 h): 1.80 x 10^5 | Number of cells/5 cm dish (α-21 cells [2]; vanadate 120 µM, 72 h): 1.76 x 10^5 cells/5cm dish | average tumour size ([3]; 4 mice, α-21 cells grown and injected with 50 µM sodium orthovanadate, nine days later): 0.618 cm^2 | tumour size ([3]; individual mice, α-21 cells grown and injected with 50 µM sodium orthovanadate, subcutaneous, 2 x 10^6 cells/mouse, nine days later): 0.30 x 0.8 cm = 0.24 cm^2 and 0.70 x 1.5 cm = 1.05 cm^2 and 0.40 x 0.7 cm = 0.28 cm^2 and 0.75 x 1.2 cm = 0.90 cm^2 | tumours smaller than those arising from cells grown and injected in the absence of vanadate ([3]; on average, 50 µM sodium orthovanadate, nine days): 2.6 times
